Measurements taken from patent US20210227854A1, “USE OF D-RIBOSE TO ENHANCE ADAPTATION TO PHYSICAL STRESS” (Bioenergy Life Science, Inc., priority 2014, published 2021).

Assays:
[1] = Two-minute power test (time trial) on cycle ergometer after sixty-minute high-intensity exercise session, double-blind crossover study; type: in vivo, human; conditions: for Absolute mean power output change / Relative mean power output change: Table 4, mean (±SD); for Mean Power (W/kg BW): difference between day 1 and day 3, 10 g/day, mean ± SD
Method: A high-intensity exercise protocol was designed as a double-blind, crossover study to assess the influence of D-Ribose adaptation to physical stress. Specifically, D-Ribose and a control (Dextrose) were administered on separate subjects at a dosage of ten grams per day (10 g/day). A variety of physiological parameters were measured in the subjects administered D-Ribose (DR) supplementation (i.e., the DR subjects) versus the subjects administered Dextrose (DEX) supplementation (i.e., the DEX subjects).
The subjects consisted of twenty-six (26) healthy individual (10 females, 16 males). Each subject was randomly categorized as a DR subject or a DEX subject for the administration of supplementation. Furthermore, each subject was required to maintain his or her normal diet during the study, as well as performing his or her normal daily activities without performing any additional separate exercise sessions not part of the study protocol.
To test D-ribose for adaptation, the twenty-six (26) adult subjects were further divided into two subgroups based on their fitness level (i.e., peak oxygen uptake (VO2 max) results. The first subgroup comprised subjects with higher VO2 max results (i.e., the “Fit Subgroup”) and the second subgroup comprised subjects with lower VO2 max results (i.e., the “Unfit Subgroup”). The Unfit Subgroup consisted of six (6) females and seven (7) males. The average age of the Unfit Subgroup was 27.7±3.4 years and the average peak VO2 of the Unfit Subgroup was 39.9±4.1 mL/kg/min. The Fit Subgroup consisted of four (4) females and nine (9) males. The average age of the Fit Subgroup was 27.6±3.5 year and the average peak VO2 of the Fit Subgroup was 52.2±4.3 mL/kg/min.
On the load days (i.e., the two (2) days prior to the exercise sessions), DR subjects consumed five grams (5 g) of DR mixed with either their food or in a self-selected beverage with lunch and an additional five grams (5 g) with dinner (i.e., between three to eight hours apart), while DEX subjects consumed five grams (5 g) of DEX mixed with either their food or in a self-selected beverage with lunch and an additional five grams (5 g) with dinner (i.e., between three to eight hours apart).
On the exercise session days (i.e., three (3) days following the load days), DR subjects ingested a standardized pre-exercise snack containing five grams (5 g) of DR at two (2) hours before the exercise session and five grams (5 g) of DR following the exercise session but before leaving the laboratory (i.e., within one hour following the exercise session), while DEX subjects ingested a standardized pre-exercise snack containing five grams (5 g) of DEX at two (2) hours before the exercise session and five grams (5 g) of DEX following the exercise session but before leaving the laboratory (i.e., within one hour following the exercise session). For both DR subjects and DEX subjects, the standardized snacks were self-selected but were based on the subjects' normal dietary habits. The snacks were consistent from day to day and consisted of one hundred seventy grams (170 g) of yogurt and two granola bars, along with the designated supplement. Subjects were asked to record their diets so that there would be consistency throughout the testing period. Following an exercise session, each subject ingested the final daily dose of five grams (5 g) before leaving the laboratory. Subjects also ingested two hundred milliliters (200 ml) of water at twenty (20) and forty (40) minutes of exercise to minimize the effects of dehydration, which can occur during periods of high-intensity exercise.
Each subject was randomly assigned to be a DR subject (for administration of DR supplementation) or a DEX subject (for administration of DEX supplementation). Apart from the supplementation provided to and consumed by the subject, the treatment protocols were identical. The specific treatment protocol (i.e., administration of supplementation and exercise sessions) is detailed in Table 1 below: […]

[2] = Serum creatine kinase (CK) around three days of high-intensity exercise; type: in vivo, human; conditions: for CK (u): Day 1 to Day 3, 10 g/day, mean ± SD; for Creatine kinase levels, average increase: text b38, p=0.03
Method: A high-intensity exercise protocol was designed as a double-blind, crossover study to assess the influence of D-Ribose adaptation to physical stress. Specifically, D-Ribose and a control (Dextrose) were administered on separate subjects at a dosage of ten grams per day (10 g/day). A variety of physiological parameters were measured in the subjects administered D-Ribose (DR) supplementation (i.e., the DR subjects) versus the subjects administered Dextrose (DEX) supplementation (i.e., the DEX subjects). To test D-ribose for adaptation, the twenty-six (26) adult subjects were further divided into two subgroups based on their fitness level (i.e., peak oxygen uptake (VO2 max) results. The first subgroup comprised subjects with higher VO2 max results (i.e., the “Fit Subgroup”) and the second subgroup comprised subjects with lower VO2 max results (i.e., the “Unfit Subgroup”). The Unfit Subgroup consisted of six (6) females and seven (7) males. The average age of the Unfit Subgroup was 27.7±3.4 years and the average peak VO2 of the Unfit Subgroup was 39.9±4.1 mL/kg/min. The Fit Subgroup consisted of four (4) females and nine (9) males. The average age of the Fit Subgroup was 27.6±3.5 year and the average peak VO2 of the Fit Subgroup was 52.2±4.3 mL/kg/min. The protocol of the double-blind crossover study involved an initial baseline assessment, followed by two separate day assessments after consuming either a DR or DEX supplement. Each exercise session entailed measurements of creatine kinase (CK), blood urea nitrogen (BUN), glucose, heart rate (HR), rate of perceived exertion (RPE), and power output (PO) measurements. Physiologic parameters were measured and hydration was provided to the subjects during the exercise session. The same protocol for testing and hydration protocol was followed for both DR subjects and DEX subjects. Blood samples were drawn from each subject via a venipuncture technique at the following time periods: • Ten (10) minutes before commencement of exercise; • Twenty (20) minutes after the commencement of and during exercise; • Forty (40) minutes after the commencement of and during exercise; • Sixty (60) minutes after the commencement of and during exercise; and • Twenty-four (24) hours after the conclusion of exercise (twenty-five (25) hours after the commencement of exercise). Blood glucose was measured at all of the above time points except at twenty-four (24) hours post-exercise. Creatine kinase and BUN levels were measured at the pre-exercise (−10 min.) point during the three (3) days of exercise and twenty-four (24) hours post-exercise following the third (last) exercise session. Heart rate was recorded using a Polar HR monitor. Blood glucose levels were measured using a Bayer glucose monitor. Blood lactate levels were measured by an AccuSport Lactate Analyzer. Creatine kinase and BUN were measured utilizing an Abaxis Piccolo analyzer. Power data from the time trial performance test was assessed with the Sports Medicine Industries (SMI) software package.

| SMILES | Average change in absolute peak power from Day 1 to Day 3 ([1]; Fit Subgroup) | Average change in relative peak power from Day 1 to Day 3 ([1]; Fit Subgroup) | Absolute mean power output change ([1]; Fit Subgroup) | Relative mean power output change ([1]; Fit Subgroup) | Mean Power (W/kg BW) ([1]; Fit Subgroup) | Average change in absolute peak power from Day 1 to Day 3 ([1]; Unfit Subgroup) | Average change in relative peak power from Day 1 to Day 3 ([1]; Unfit Subgroup) | Absolute mean power output change ([1]; Unfit Subgroup) | Relative mean power output change ([1]; Unfit Subgroup) | Mean Power (W/kg BW) ([1]; Unfit Subgroup) | CK (u) ([2]; Fit Subgroup) | CK (u) ([2]; Unfit Subgroup) | Creatine kinase levels, average increase ([2]; Unfit Subgroup) | Relative and absolute mean power outputs, DR versus DEX treatments ([1]; Fit Subgroup) | Difference between DR and DEX in the change of absolute mean power ([1]; Unfit Subgroup, p=0.01) | Improvement in relative mean power over DEX ([1]; Unfit Subgroup, p=0.04) | Change in CK levels, DR versus DEX ([2]; Fit Subgroup) |
| --- | --- | --- | --- | --- | --- | --- | --- | --- | --- | --- | --- | --- | --- | --- | --- | --- | --- |
| O=C[C@H](O)[C@@H](O)[C@H](O)[C@H](O)CO [DEX, Dextrose, reference compound] | 3.31±25.8 W | −0.02+0.37 W/kg BW | 8.2 (27.7) W | 0.07 (0.33) W/kg BW | 0.07 ± 0.33 W/kg BW | −10.8±33.0 W | −0.09+0.51 W/kg BW | −8.9 (22.4) W | −0.09 (0.29) W/kg BW | −0.09 ± 0.31 W/kg BW | 12.1 ± 270 u | 124.5 ± 126.5 u | 121.4±110.2 U | – | – | – | – |
| O=C[C@H](O)[C@H](O)[C@H](O)CO [DR, D-Ribose] | 6.2±28.6 W | 0.15±0.41 W/kg BW | 2.3 (17.1) W | 0.08 (0.39) W/kg BW | 0.08 ± 0.31 W/kg BW | 26.8±40.8 W | 0.33+0.52 W/kg BW | 13.2 (24.2) W | 0.17 (0.32) W/kg BW | 0.20 ± 0.32 W/kg BW | 40.0 ± 348.1 u | 10.3 ± 79.3 u | 37.1±85.2 U | not different | 245% | 288% | No differences |
